Entries after “also recorded” stand apart in the source; their conditions may differ.
Key:
Assay type in all cases: cell-based, human
[1] = tested on: full-length mouse Plk4-YFP; assay: Plk4 stabilization assay, Plk4-YFP DLD-1 cells; conditions: 250 nM, 24 hours
Procedure: Plk4 stabilization assay. Expression was induced in Plk4-YFP DLD-1 cells using 1 μg/ml doxycycline. At the same time, cells were treated with the indicated concentrations of compounds. Cells were incubated for 24 hours before harvesting for Western blotting (see below).
Western blotting. […] Cell extracts were stored at −80° C. until use.

[2] = tested on: HeLa cells; assay: Quantification of centrosome numbers from fixed samples, HeLa; conditions: HeLa, 50 or 100 nM
Procedure: Quantification of centrosome numbers from fixed samples. Cells were seeded onto poly-D-lysine-coated coverslips (Neuvitro) in 12-well plates at least 8 hours before fixation. At the required timepoints for each experiment, cells were washed once with PBS and fixed in 100% methanol (−20° C., 5 minutes). Fixed cells were washed with PBS, blocked with PBS+4% BSA+0.1% Triton X-100, and stained with primary antibodies against γ-tubulin and Cep192, which localize to the pericentriolar material and proximal to the outer centriole wall, respectively (47, 48). Alexa488-labeled anti-mouse secondary antibody (against anti-γ-tubulin) and Alexa647-labeled anti-rabbit secondary antibody (against anti-Cep192) were both used at 1.5 jag/mL. Samples were mounted onto slides with Prolong Gold antifade reagent (Life Technologies). Images of fixed interphase cells were acquired on a Nikon Eclipse E800 with a 60×1.4 NA PlanApo objective and ORCA-ER camera (Hamamatsu) using Metamorph software (Molecular Devices). Quantification of foci was performed manually. A focus was defined as a bona-fide centrosome if it was positive for both γ-tubulin and Cep192 (true for >95% of foci).

[3] = tested on: RPE1 cells; assay: Analysis of mitosis and daughter cell fate, RPE1; conditions: RPE1, only mitotic events with clear missegregation, FIG. 18B
Procedure: Analysis of mitosis and daughter cell fate. […] Cells were seeded into 96-well cycloolefin plates at 5000 cells/well, 8-10 hours before imaging. Movies were acquired on the CV1000 with a 40×0.95 NA U-PlanApo objective. The imaging chamber was maintained at 37° C. and 5% CO2. Image acquisition and data analysis were performed using CellVoyager software. 20 fields/well were imaged. For HeLa and NIH/3T3 cells, 5×2 μm z-sections in the GFP (25% power, 125 ms, 30% gain) and RFP (25% power, 100 ms, 30% gain) channels were captured in each field, at 5-minute intervals for 24 hours. For RPE1 cells, 5×2 μm z-sections in the GFP (20% power, 100 ms, 30% gain) and RFP (25% power, 100 ms, 30% gain) channels were captured in each field, at 5-minute intervals for 8 hours. To track RPE1 daughter cell fate, imaging was then switched to 3×4 μm z-sections in the RFP channel only, at 10-minute intervals for 48 hours. Mitosis was measured from nuclear envelope breakdown to anaphase onset (or arrest). Results represent combined measurements of 100 mother cells per condition from 2-4 independent experiments.
To study the correlation between mother cell prometaphase duration and daughter cell fate, RPE1 cells co-expressing centrin-GFP and H2B-RFP were seeded into 96-well cycloolefin plates at 5000 cells/well, 8-10 hours before imaging. Cells were treated with 80 nM nocodazole and immediately imaged on the CV1000 system with a 40×0.95 NA U-PlanApo objective. The imaging chamber was maintained at 37° C. and 5% CO2. 20 fields/well were imaged. 5×2 Lm z-sections in the GFP (20% power, 100 ms, 30% gain) and RFP (25% power, 100 ms, 30% gain) channels were captured in each field, at 5-minute intervals for 6 hours. The plate was then removed from the microscope, and wells were washed 6 times with warm medium. The plate was returned to the microscope, and imaging was resumed, capturing 3×4 Lm z-sections in the RFP channel only, at 10-minute intervals for 50 hours. To study the effect of chromosome missegregation on daughter cell fate, cells were treated with 1 LM NMS-P715 to inhibit the spindle assembly checkpoint kinase Mps1, then imaged as described above. Only mitotic events with clear missegregation (lagging chromosomes and subsequent formation of daughter cells with micronuclei) were analyzed. For both experiments, results represent combined measurements of 100 mother cells from 2 independent experiments.

| SMILES | Plk4-YFP stabilization [1] | nuclear morphology and division [2] | effect on centrosome number ([2]; 3 days) | percentage of daughters not dividing within 48 hours [3] |
| --- | --- | --- | --- | --- |
| COc1ccc2c(c1)[C@]1(C[C@H]1c1ccc3c(/C=C/c4ccc(CN5C[C@@H](C)O[C@@H](C)C5)cc4)n[nH]c3c1)C(=O)N2 (relative stereo) [CFI-400945, (1R,2S).2-(3-((E).4-(((cis).2,6-dimethylmorpholino)methyl)styryl). 1H.indazol-6-yl)-5′-methoxyspiro[cyclopropane-1,3′-indolin]-2′-one, reference compound] | only slight Plk4-YFP stabilization | become grossly multinuclear | causes centrosome amplification; also recorded: does not deplete centrioles from cells; also recorded: induces centrosome amplification | – |
| CCc1cccc(CC)c1NC(=O)c1nn(C)c2c1CCc1cnc(Nc3ccc(C(=O)NC4CCN(C)CC4)cc3OC(F)(F)F)nc1-2 [NMS-P715] | – | – | – | 11.4% |
